One data set concerns Sprague-Dawley rats. The data set is described as follows: Blood glucose levels in Sprague-Dawley rats under hyperglycemic clamping (Example 3, FIG. 2). Format: in vivo. As to conditions: hyperglycemic clamping at 15 mM, sc. On the procedure:
Various peptides, including peptides of the present invention (100 μg/kg) were administered sc. Alterations in blood glucose levels (Delta glucose: mM) are shown on the abscissa. The data are presented as mean ±SEM values;
The animals (Sprague-Dawley rats) were maintained on standard laboratory chow under a 12:12 light:dark cycle. Following a 12 hour fasting period, the animals were anesthetized (Isoflurane 2%) and a carotid and jugular catheter installed to allow blood withdrawal and glucose injections (1.0 g/kg bolus followed by an infusion of 1.4 g/kg/hr) respectively. The animals received a subcutaneous injection of the analogs at different concentrations (300 μg/kg) 90 minutes after initiating the glucose bolus and infusion, at a time period where blood glucose concentrations have reached a steady level. Blood glucose measurements were taken prior to and 30, 60, 90, 100, 110, 120, 135, 150, 180, 210, and sometimes 240 and 300 minutes after the injection of glucose.
Glucose measurements were carried out immediately following sampling (0.3-0.4 ml; if needed) by placing a blood droplet on a glucometer strip. The glucose measurements were carried out prior to plasma separation (centrifugation) required to perform the insulin and/or any other assay.

The target of data set [1] is T1, GLP-1 receptor in RINm5F cells (Rattus norvegicus, UniProt P32301).
T1 construct: The cell membranes were diluted to obtain aliquots of 400 μg of protein per assay tube; host or cells: RINm5F cells, sonicated to a membrane preparation
T1 sequence (P32301 22-463): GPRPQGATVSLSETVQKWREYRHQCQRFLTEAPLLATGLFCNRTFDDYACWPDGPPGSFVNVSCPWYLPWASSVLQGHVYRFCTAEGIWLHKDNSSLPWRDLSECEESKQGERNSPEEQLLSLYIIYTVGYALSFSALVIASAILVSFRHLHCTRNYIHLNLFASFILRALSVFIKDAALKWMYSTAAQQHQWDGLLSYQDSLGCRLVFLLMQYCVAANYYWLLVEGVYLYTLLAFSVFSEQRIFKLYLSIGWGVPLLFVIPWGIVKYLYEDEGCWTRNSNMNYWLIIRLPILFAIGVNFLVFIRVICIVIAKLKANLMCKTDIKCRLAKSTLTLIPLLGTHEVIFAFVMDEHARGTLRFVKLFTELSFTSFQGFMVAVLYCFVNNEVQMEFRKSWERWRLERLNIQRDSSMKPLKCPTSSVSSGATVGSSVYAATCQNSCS
Nature of the data set: Displacement of 125I-GLP-1(7-36)NH2 using RINm5F cells (Example 4, FIG. 3). The conditions noted are these: RINm5F cell membranes, 400 μg protein, 22° C., 45 minutes. Format: binding. On the procedure:
The IC50 is calculated as the half-maximal inhibition of binding of the radiolabeled peptide; RINm5F cells (ATCC # CRL-2058) were grown according to the manufacturer's specifications. Cells from confluent flasks were maintained for four (4) days prior to the experiment. The cells were then scrapped and collected in 15 ml conical tubes followed by sonication and evaluation of protein levels. The cell membranes were diluted to obtain aliquots of 400 μg of protein per assay tube. Aliquots of RINm5F cells containing 400 μg of protein were incubated at 22° C. […] The reactions were stopped using 100 mM Tris-HCl (3×3 mL, pH 7.4) and the solutions passed through a GF/C Whatman glass microfiber filter. The latter was subsequently placed into glass tubes and counted on a Packard COBRA II Gamma counter™. Displacement isotherms were traced and analyzed using Prism™ (GraphPad, Ca).

Data set [2] concerns cAMP production in RINm5F cells. Nature of the data set: cAMP production in RINm5F cells (Example 5). Format: cell-based. The conditions noted are these: 30 minutes at 37° C., 0.1 mM IBMX, mean ± SEM. On the procedure: RINm5F cells (ATCC # CRL-2058) were grown according to the manufacturer's specifications. Cells from approximately 90% confluent flasks were trypsinized and counted. […] Samples of the stock solutions were then aliquoted in 100 μl volumes (100 μg), to which were then added 400 μl H2O. The aliquots were then frozen and lyophilized overnight. The lyophilized samples were kept at −80° C. until used. The samples were prepared just prior to running the experiments, at a concentration of 1 mM (accounting for peptide purity and peptide content when available). From 2× stock solutions, dose-responses (10^−10 M to 10^−5 M) were measured in RPMI containing 0.1 mM IBMX. […] Cell culture media was gently aspired from the wells. The cells were then pre-incubated in 100 μl RPMI 0.1 mM IBMX at 37° C. for 10 minutes. […] At the end of the incubation period, the supernatant was collected and assayed for cAMP concentration, using a radioimmunoassay kit (DPC). Radioactive counts were transformed into cAMP amounts using a standard curve. The obtained cAMP values were corrected for the total protein in the corresponding wells as determined using the Coomassie blue assay. The cAMP values are expressed as mean ±SEM in pmol/mg protein (Table 3). Dose responses of cAMP were fitted to a sigmoidal curve model (fixed slope) using GraphPad Prism 3.02™. When performing a protein assay, the amount of protein per well is assayed for each sample. The cells were lysed with NaOH (0.1 N) and a 10 μl aliquot was used to assay the protein levels. This is done using Coomassie Blue (Pierce) and an automated plate reader Emax Pro™ (Molecular Devices).

In data set [3] the test system is CD-1 mice. The data set is described as follows: Post-prandial glucose lowering in fed CD-1 mice (Example 6, FIG. 4). Format: in vivo. The conditions noted are these: 400 μg/kg sc, AUC glucose over 6 hours. Here is the method:
Post-prandial AUC glucose levels for a 6 hour period are presented as a bar (mean ±SEM; n=the number of animals as presented above the bar). […] FIGS. 5, 6, 7 and 8 illustrate the effect (dose response) on post-prandial glucose levels in CD-1 mice for selected analogs. […] The blood glucose levels were measured for a period of up to 6 hours following injection (mean ±SEM; upper panel). The AUC glucose for the 6 hours period is presented as a bar (mean ±SEM; lower panel; n is the number of animals as presented on top of the lower panel bars); The animals (CD-1 mice) were maintained on standard laboratory chow under a 12:12 light:dark cycle. The animals were kept in groups of 4 mice per cage. […] The amount of food eaten was monitored. The food was then removed and the animals were injected subcutaneously with either vehicle or with a GLP-1 analogue to be tested. […] A small piece of the tip of the tail of the CD-1 mice was cut with a scalpel and a drop of blood drawn by applying light pressure with the thumb and index from the base of the tail to the tip. The drop of blood was placed on a glucometer strip (Accucheck™ compact, Roche) and a reading obtained. The scab was removed and the same procedure applied for each subsequent measurement.

In data set [4] the test system is streptozotocin-induced diabetic CD-1 mice. Nature of the data set: Glucose lowering in fed streptozotocin-induced diabetic CD-1 mice (Example 8, FIGS. 12-16). Format: in vivo. As to conditions: for glucose levels of streptozotocin-induced diabetic mice / duration of action: fed STZ-induced diabetic CD-1 mice, sc; for duration of action: FIGS. 12-16. Here is the method: Blood glucose levels were measured for 12 hours post-injection (mean ±SEM; upper panel). […] In order to compare the duration of the effects of TH0396 and Exendin-4™, the glucose levels at the last hour of observation were analyzed in a dose-dependent manner. […] At 10:00 am, the animals were injected subcutaneously with the agent. Blood glucose levels were measured for 12 hours post-injection (mean ±SEM; upper panel). Average glucose levels at 11 and 12 hours are presented after subtracting the fed glucose levels of normal mice (n is the number of animals as presented on top of the lower panel bars). The animals (CD-1 mice) were maintained on standard laboratory chow under a 12:12 light:dark cycle. The animals were kept in groups of 4 mice per cage. […] The amount of food eaten was monitored for the duration of the experiment. […] A small piece of the tip of the tail of the CD-1 mice was cut with a scalpel and a drop of blood drawn by applying light pressure with the thumb and index from the base of the tail to the tip. The drop of blood was placed on a glucometer strip (Accucheck™ compact, Roche) and a reading obtained. The scab was removed and the same procedure applied for each subsequent measurement.

Data set [5] concerns CD-1 mice. Nature of the data set: Post-prandial blood glucose levels in CD-1 mice (Example 2, FIG. 1). Format: in vivo. As to conditions: CD-1 mice fasted overnight, fed 30 minutes, peptides 400 μg/kg sc, blood glucose followed 6 hours. On the procedure:
Various peptides, including peptides of the present invention (400 μg/kg), were administered sc at 30 minutes and the blood glucose levels were determined for the next 6 hours. The data are presented as mean ±SEM values;
Overnight fasted CD-1 normal female mice (6 wk. Charles River, Montreal, Canada), were fed ad libidum for 30 minutes. […] Blood samples were drawn by tail vein excision and blood glucose levels (mmol/L) were determined for the next 6 hours using a One-Touch™ glucometer.

The conditions of data set [6]: Nauck 1996; Todd 1998; cited from earlier work.
For data set [7] the following is noted: active GLP-1; Holst 1994; cited from earlier work.

In the case of “His-Gly-Glu-Gly-Thr-Phe-Thr-Ser-Asp-Val-Ser-Ser-Tyr-Leu-Glu-Gly-Gln-Ala-Ala-Lys-Ala-Phe-lle-Glu-Trp-Leu-Lys-Asn-NH2 [TH0384]”, the “potency on blood glucose levels (delta glucose)” value in the data set on Sprague-Dawley rats is “more potent than GLP-1 or the 2-hydroxybenzoyl-GLP-1 analog TH0318”. Moreover, in data set [1], the “potency in displacing receptor bound ligand (125I-GLP-1(7-36)NH2)” value was “considerably more potent than GLP-1”.
In the case of “trans-3-hexenoyl-NH-His-Ala-Glu-Gly-Thr-Phe-Thr-Ser-Asp-Val-Ser-Ser-Tyr-[(S)-Octylglycine]-Glu-Gly-Gln-Ala-Ala-Lys-Glu-Phe-Ile-Ala-Trp-Leu-Val-Lys-Aib-Arg-NH2 [TH0426]”, in data set [2], the EC50 worked out at 0.4 ± 0.4 nM and the Maximal response stood at 5.7 ± 0.6 pmol/mg protein.
In data set [2], “trans-3-hexenoyl-NH-His-Ala-Glu-Gly-Thr-Phe-Thr-Ser-Asp-Val-Ser-Ser-Tyr-[(S)-Octylglycine]-Glu-Gly-Gln-Ala-Ala-Lys-Glu-Phe-Ile-Ala-Trp-Leu-Val-Lys-Gly-Arg-NH2 [TH0424]” had an EC50 of 6.3 ± 1.7 nM and a Maximal response of 4.3 ± 0.2 pmol/mg protein. Besides, the “reduction of post-prandial glucose” value with CD-1 mice [3] is recorded as “potently reduce post-prandial glucose”. Moreover, in data set [4], the “glucose levels of streptozotocin-induced diabetic mice” value was “down to those seen in normal feeding mice” and the duration of action entry is listed as “extended duration of action”.
For “His-Gly-Glu-Gly-Thr-Phe-Thr-Ser-Asp-Val-Ser-Ser-Tyr-[(S)-Octylglycine]-Glu-Gly-Gln-Ala-Ala-Lys-Ala-Phe-Ile-Glu-Trp-Leu-Lys-Asn-NH2 [TH0397]”, the “reduction of post-prandial glucose” value with CD-1 mice [3] is “potently reduce post-prandial glucose”.
On to “HAEGTFTSDVSSYLEGQAAKEFIAWLVKGR [GLP-1, reference compound]”, for which the “duration of hypoglycemic action” value in the data set with CD-1 mice [5] turned out to be 2 h. Also, in data set [2], a half-maximal effect (EC50) was put at 1.8 ± 0.9 nM and the Maximal response came out at 1.5 ± 0.3 pmol/mg protein. Also, in data set [6], the “duration of hypoglycemic action” value is 2 to 3 h. The metabolic clearance rate in data set [7] was 12 to 13 min.
Take “2-Hydroxybenzoyl-NH-His-Ala-Glu-Gly-Thr-Phe-Thr-Ser-Asp-Val-Ser-Ser-Tyr-Leu-Glu-Gly-Gln-Ala-Ala-Lys-Glu-Phe-Ile-Ala-Trp-Leu-Val-Lys-Gly-Arg-NH2 [TH0318]”: the “duration of hypoglycemic action” value with CD-1 mice [5] is 2 h. In data set [2], this substance returned an EC50 of 13.6 ± 2.9 nM and a Maximal response of 3.5 ± 0.2 pmol/mg protein.
In data set [2], “trans-3-hexenoyl-NH-His-Ala-Glu-Gly-Thr-Phe-Thr-Ser-Asp-Val-Ser-Ser-Tyr-[(S)-Octylglycine]-Glu-Gly-Gln-Ala-Ala-Lys-Ala-Phe-Ile-Glu-Trp-Leu-Val-Lys-Asn-NH2 [TH0396]” displayed a half-maximal effective concentration (EC50) of 2.3 ± 1.7 nM and a Maximal response of 3.9 ± 0.3 pmol/mg protein. Further, the “reduction of post-prandial glucose” value with CD-1 mice [3] is “potently reduce post-prandial glucose”. Besides, in data set [4], the “glucose levels of streptozotocin-induced diabetic mice” value was “down to those seen in normal feeding mice” and the duration of action entry is reported as “extended duration of action”.
For the substance “His-Ala-Glu-Gly-Thr-Phe-Thr-Ser-Asp-Val-Ser-Ser-Tyr-[(S)-Octylglycine]-Glu-Gly-Gln-Ala-Ala-Lys-Glu-Phe-Ile-Ala-Trp-Leu-Val-Lys-Gly-Arg-NH2 [TH0322]”, in data set [1], the “potency in displacing receptor bound ligand (125I-GLP-1(7-36)NH2)” value is listed as “considerably more potent than GLP-1”. In data set [2], this substance showed an EC50 of 0.2 ± 0.2 nM and a Maximal response of 1.0 ± 0.2 pmol/mg protein.
As to “trans-3-hexenoyl-NH-His-Ala-Glu-Gly-Thr-Phe-Thr-Ser-Asp-Val-Ser-Ser-Tyr-[(S)-Octylglycine]-Glu-Gly-Gln-Ala-Ala-Lys-Ala-Phe-Ile-Glu-Trp-Leu-Lys-Asn-NH2 [TH0395]”, in data set [2], the 50% effective concentration (EC50) worked out at 6.1 ± 0.9 nM and the Maximal response came to 3.7 ± 0.4 pmol/mg protein. In addition, in the data set on CD-1 mice [3], the “reduction of post-prandial glucose” value was “potently reduce post-prandial glucose”. In data set [4] (STZ-induced diabetic mice, initial 6 hours of the study, FIG. 14), the “potency compared with Exendin-4” value is “more potent then Exendin-4™”. In addition, in data set [4], the “glucose levels of streptozotocin-induced diabetic mice” value is given as “down to those seen in normal feeding mice” and the duration of action entry is on record as “extended duration of action”.
